{"source": "paper PMC5608406", "about": "“In vivo activation of latent HIV with a synthetic bryostatin analog effects both latent cell \"kick\" and \"kill\" in strategy for virus eradication” (PLoS Pathogens, 2017)", "key": {"[1]": {"test": "Plasma cytokine quantification after in vivo administration", "conditions": "following administration to C57/bl6 mice", "procedure": "Quantification of the levels of the murine cytokines IL-2, IL-6, MIP-1-alpha, and TNF-alpha in mouse plasma samples was performed using a custom Milliplex Mouse Cytokine/Chemokine Magnetic Kit (Millipore) according to the manufacturer’s recommendations. Wash steps were performed using a Bio-Plex II Wash Station (Bio-Rad), and the data were acquired using a Bio-Plex 200 System with high-throughput fluidics (Bio-Rad). The resultant data were analyzed using Bio-Plex Manager 6.1 software."}, "HIV strain NL-HA": {"test_system": "HIV strain NL-HA", "format": "in vivo, humanized BLT mice", "conditions": "IP injection while maintaining ART, overnight incubation"}, "[2]": {"test_system": "human T cells in BLT mice", "test": "Stimulation of human cells in uninfected humanized BLT mice (CD69, CD25)", "format": "in vivo", "conditions": "spleen and blood, one day after stimulation"}, "murine splenocytes": {"test_system": "murine splenocytes", "test": "In vivo bioactivity (CD69/CD25 in splenocytes) in C57/bl6 mice", "procedure": "(§1) C57/bl6 mice were obtained from the UCLA Department of Radiation Oncology. Compounds were suspended in DMSO and then further diluted in RF10 media to produce a final volume of 500 μL (containing a maximum 4% DMSO). These 500 μL volumes were administered to mice by intraperitoneal injection. Mice were monitored for acute toxicities and then sacrificed at the indicated times. Spleens were removed and disaggregated using a steel mesh, and then filtered through a 40 μm filter to produce a single-cell suspension. The resultant splenocytes were then stained for flow cytometry to analyze surface expression of relevant markers.\nDuring standard flow cytometry staining, samples of 10^5 cells were suspended in 50 μL of a 1:1 dilution of phosphate buffered saline (PBS):Human AB serum (Sigma). Staining of C57/bl6 mouse splenocytes was performed by adding the following anti-mouse fluorescent conjugated antibodies: CD3-Fluorescein isothiocyanate (FITC, eBioscience 11-0032-82); CD69-Phycoerythrin (PE, eBioscience 12-0691-83); and CD4-Allophycocyanin (APC, eBioscience 17-0041-83). In some experiments CD4-APC was replaced with CD25-APC (eBioscience 17-0251-82) and CD4-Phycoerythrin Cyanin 7 (PC7, eBioscience 25-0041-82). For humanized mouse studies, PBMC and splenocytes from BLT mice were stained with anti-mouse CD45-Alexa 700 (Biolegend 103128) and the following anti-human antibodies: CD45-e450 (eBioscience 48-0459-42); CD3-APC-780 (eBioscience; 47-0038-42); CD4-V500 (BD biosciences; 560768); CD8-Peridinin chlorophyll protein (PerCP)-710 (eBioscience 46-0087-42); CD25-PE (Beckman IM0479U); CD69-APC (Biolegend 310910); CD14-PE-Cy7 (Biolegend 325618). Cells were separately stained for anti-human CD45 e450- (eBioscience 48-0459-42) and anti-HA-Biotin PE (Roche 12158167001) followed by a secondary Streptavidin, R-Phycoerythrin Conjugate (Invitrogen s866) stain. This two-step stain was performed by incubating 1-2x10^6 cells at 4°C for 20–30 min, washing with 2% FBS in PBS, then adding the secondary stain, incubating again at 4°C for 20–30 min, and washing with 2% FBS in PBS before fixation with 2% paraformaldehyde. In some experiments, cell death was also evaluated by GHOST Red 780 (Tonbo Biosciences 13–0865) or Zombie Yellow (Biolegend 423104) stains. For this procedure, 10^6 cells were suspended in 100 μL PBS, and then the Zombie yellow and GHOST Red 780 dyes added. Cells were incubated for 20 min at room temperature in the dark and then washed twice with 2% FBS in PBS. Cells were then fixed with 2% paraformaldehyde and incubated for 20 min in the dark. In some experiments cells were then washed with 2% FBS in PBS, resuspended in 1:1 PBS:Human AB serum and then stained for human CD45 and HA, CD3-PE-Cy5 (Biolegend 300310), CD4-ECD (Beckman 6604727), CD8 Per-CO710 (eBioscience 46-0087-42) and CD3-APC (Cell signaling 9602S) as described above."}, "[3]": {"test_system": "HA+ (HIV-expressing) cells", "format": "in vivo, humanized BLT mice", "conditions": "within 24 hours of activation, Ghost Red and Zombie Yellow"}, "C57/bl6 mice": {"test_system": "C57/bl6 mice", "test": "In vivo acute toxicity / tolerability in C57/bl6 mice", "conditions": "intraperitoneal injection, in some cases", "procedure": "as §1"}, "J-Lat 10.6 cell line": {"test_system": "J-Lat 10.6 cell line", "design": "method as in PMID 22914190", "conditions": "cited from earlier work"}, "U1 cells": {"test_system": "U1 cells", "test": "Activation of HIV from latency in U1 cell line (p24 ELISA)", "format": "cell-based", "conditions": "48h", "procedure": "U1 cells (tested negative for bacteria, mold, yeast, and mycoplasma) were obtained through the AIDS Reagent Program, Division of AIDS, NIAID, NIH from Dr. Thomas Folks. Cells and compound were seeded in a final 200 μL volume of RF10 media at a cell density of 20,000 cells/well in v-bottomed 96 well plates and incubated at 37°C for 48 hours. After incubation, cells were pelleted and supernatant harvested then diluted in a 2% Triton-x-100/phosphate buffered saline solution. The concentration of HIV p24 protein in the culture supernatant was quantified using the HIV p24 antigen enzyme linked immunosorbent assay (ELISA) kit (Beckman Coulter) according to the manufacturer’s instructions."}}, "note": "Entries after “also recorded” stand apart in the source; their conditions may differ."}
{"smiles": "C=C1C[C@H]2C[C@]3(O)O[C@H](C[C@@H](O)CC(=O)O[C@@H](CO)C[C@@H]4C/C(=C\\C(=O)OC)[C@H](OC(=O)CCCCCCC)[C@@](O)(O4)C(C)(C)/C=C/[C@@H](C1)O2)C[C@H](OC(C)=O)C3(C)C", "note": "[SUW133]", "values": [{"measurement": "plasma concentration of MIP-1-alpha", "setting": "[1]", "value": "no detectable increase"}, {"measurement": "plasma concentration of TNF-alpha", "setting": "[1]", "value": "no detectable increase"}, {"measurement": "plasma concentration of interleukin (IL)-2", "setting": "[1]", "value": "no detectable increase"}, {"measurement": "plasma IL-6 levels", "setting": "[1]; days 1 to 9", "value": "only a short-term elevation; also recorded: declined significantly between days 1 and 9 post-injection"}, {"measurement": "percentage of HA+ (HIV-expressing) cells", "setting": "HIV strain NL-HA", "value": "induced significant numbers of latently-infected cells to express viral proteins"}, {"measurement": "CD25 expression in human T cells", "setting": "[2]", "value": "limited CD25 expression"}, {"measurement": "CD69 expression in human T cells", "setting": "[2]", "value": "robust activation of CD69"}, {"measurement": "CD4+ splenocytes expressing CD69", "setting": "murine splenocytes; intraperitoneal injection, 24h post-injection, maximum over ascending doses", "value": "over 80%"}, {"measurement": "lowest dose inducing CD69 expression", "setting": "murine splenocytes; intraperitoneal injection, C57/bl6 mice", "value": 1, "unit": "µg"}, {"measurement": "CD25 expression on CD3+ T cells in spleen", "setting": "murine splenocytes; single injection of 10 μg", "value": "remained unchanged"}, {"measurement": "CD69 expression on splenocytes, time course", "setting": "murine splenocytes; single injection of 10 μg, up to day 9", "value": "transient expression of CD69 on the vast majority of murine splenocytes"}, {"measurement": "cells induced to express HIV that stained with cell death dyes", "setting": "[3]", "value": "up to 25%"}, {"measurement": "tolerated dose", "setting": "C57/bl6 mice", "value": "up to 30 μg per animal"}, {"measurement": "induction of HIV from latency", "setting": "J-Lat 10.6 cell line", "value": "effectively induced HIV from latency"}, {"measurement": "induction of latent virus (HIV p24 in supernatant)", "setting": "U1 cells", "value": "induced significant levels of latent virus"}]}
